Data published in patent US11814370B2, “Deuterated N-(5-(2,3-dihydrobenzo[b][1,4]dioxine-6-carboxamido)-2-fluorophenyl)-2-((4-ethylpiperazin-1-yl)methyl)quinoline-6-carboxamide” (priority 2016, dated 2023).

Experiments:
[1] = tested on: SK-OV-3 ovarian cancer cell line; assay: cells; type: cell-based; conditions: Homo sapiens, SK-OV-3, 96 h, read-out: SK-OV-3 pGI50 ± SEM (n) (converted)
Description: Cells were grown in DMEM/10% FCS, 2 mM glutamine and nonessential amino acids in 5% CO2.
In Vitro Cell Viability Assay
The cell titer blue viability (CTB) (Promega) assay provides a homogenous, fluorometric method for estimating the number of viable cells. It uses the dark blue indicator dye resazurin to measure the metabolic capacity of cells which is an indicator of cell viability. Viable cells are able to reduce resazurin into resorufin (pink), which is highly fluorescent. […] Compounds (at a range of concentrations) were added using the ECHO 550 liquid handler (Labcyte, USA) and then left at 37° C. for 96 h. Titre blue reagent was added to each well and left at 37° C. for 3-4 h. Fluorescence was measured using the Envision machine (Perkin Elmer, UK). The 50% growth inhibitory concentration (GI50) was determined by fitting the data to a dose-response curve without limits using non-linear regression. Each concentration was tested twice.

[2] = tested on: HSP72 induction (product of HSF1 transcriptional activity) in SK-OV-3 cells; assay: Cell-based ELISA (Cellisa) for HSP72 expression after 17-AAG; set-up: species or system human; conditions: SK-OV-3 ovarian cancer cell line; summary of Table 1
Description: Prior to use, the cells were analyzed by short tandem repeat (STR) profiling. Polymorphic STR loci were amplified using a polymerase chain reaction (PCR) primer set. The PCR product (each locus being labelled with a different fluorophore) was analyzed simultaneously with size standards using automated fluorescent detection. The number of repeats at 10 different loci (as recommended by the American Type Culture Collection, ATCC) was used to define the STR profile and this was cross-referenced with online databases to confirm authenticity. […] The cells were free of mycoplasma contamination as determined by a sensitive nested PCR protocol (Venor GeM kit, Minerva Biolabs, Germany). Cells were grown in DMEM/10% FCS, 2 mM glutamine and nonessential amino acids in 5% CO2.
Cell-Based ELISA (Cellisa) for HSP72 Expression
To follow HSP72 protein expression, a product of HSF1 transcriptional activity, the Cellisa was developed. […] The medium was removed and cells were fixed with fixing solution (4% paraformaldehyde, 0.3% TritonX-100 in PBS buffer) for 30 min at 4° C. The plates were then washed with 0.1% Tween-20/deionized water, before blocking with 5% milk for 30 mins at 37° C. […] Following 4× washes, the plates were incubated with europium-labelled anti-mouse antibody (0.6 μg/mL) in Delfia assay buffer (Perkin Elmer) for 1 h at 37° C. […]

Row | GI50 [1] [nM] | Compound | cellular activity (in words) [2]
1 | 18.2 | [2H]C1([2H])N(CC)C([2H])([2H])C([2H])([2H])N(Cc2ccc3cc(C(=O)Nc4cc(NC(=O)c5ccc6c(c5)OCCO6)ccc4F)ccc3n2)C1([2H])[2H] [Compound B, N-(5-(2,3-Dihydrobenzo[b][1,4]dioxine-6-carboxamido)-2-fluorophenyl)-2-((4-ethyl-piperazin-d8-1-yl)methyl)quinoline-6-carboxamide] | 
2 |  | [2H]C([2H])([2H])C([2H])([2H])N1CCN(Cc2ccc3cc(C(=O)Nc4cc(NC(=O)c5ccc6c(c5)OCCO6)ccc4F)ccc3n2)CC1 [Compound A, N-(5-(2,3-Dihydrobenzo[b][1,4]dioxine-6-carboxamido)-2-fluorophenyl)-2-((4-ethyl-d5-piperazin-1-yl)methyl)quinoline-6-carboxamide] | potent cellular activity
3 | 11.5 | [2H]C1([2H])Oc2ccc(C(=O)Nc3ccc(F)c(NC(=O)c4ccc5nc(CN6CCN(CC)CC6)ccc5c4)c3)cc2OC1([2H])[2H] [Compound C, N-(5-(2,3-Dihydrobenzo-d4-[b][1,4]dioxine-6-carboxamido)-2-fluorophenyl)-2-((4-ethylpiperazin-1-yl)methyl)quinoline-6-carboxamide] | 
